Results reported in patent publication US5945436A, “Pyridylmethyl nitriles, amides and thioamides useful as fungicides” (Uniroyal Chemical Company, Inc., priority 1997, dated 1999).

What was measured:
Septoria nodorum = experiment: Fungal growth inhibition, treated disc on agar (SEP NOD); type: cell-based; conditions: disc dipped in 500 mg/l, 29° C.; for inhibition at 500 µg/mL: Parastagonospora nodorum, read-out: Percent Growth Inhibition, SEP NOD
Colletotrichum gossypii = experiment: Fungal growth inhibition, treated disc on agar (COL GOS); type: cell-based; conditions: disc dipped in 500 mg/l, 29° C.; for inhibition at 500 µg/mL: Colletotrichum gossypii, read-out: Percent Growth Inhibition, COL GOS
Source text: Filter paper discs, each 11 mm. in diameter, were dipped in each of the test solutions. The discs were allowed to air dry to drive off the acetone solvent. A number of untreated discs were used as controls.
The treated and untreated discs were then placed on agar plates and one of the following fungus species: Septoria nodorum (SEP NOD), Botrytis cinerea (BOT CIN), Fusarium oxysporum (FUS OXY), Pythium ultimum (PYT ULT), Rhizoctonia solani (RHI SOL), Colletotrichum gossypii (COL GOS), and Scierotinia minor (SCL MIN), was added to the center of each disc in the form of a culture plug with the fungus mat in contact with the paper of the test disc. Cercosporidium personatum (CER PER), was added to discs as a spore suspension (20,000 spores/ml) to the disc (two drops of spore suspension per disc), rather than a mycelial culture plug. The plates were then incubated at 29° C. in an oven.
With the exception of the discs containing Cercosporidium personatum, the discs were evaluated by first measuring the radius from the center of the fungus colony on the treated discs and on the untreated discs. Percent growth inhibition of each of the compounds tested was determined as a function of the difference between the radius of the fungus colony on the treated disc versus the radius of the fungus colony on the untreated disc.

Uromyces phaseoli = experiment: Bean rust fungus eradicant test (URO PHA); type: in vivo; conditions: pinto bean, eradicant spray 2 days after inoculation, 1,000 mg/l; for pest or weed control at 1000 µg/mL: Uromyces phaseoli, 216 h, read-out: Percent Reduction of Disease, URO PHA
Procedure, shortened: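 Seven-day-old pinto bean plants (Phaseolus vulgaris, primary leaf) were inoculated with 20,000 spores/ml, held 24 h at 99% humidity and 21° C., then sprayed two days post-inoculation with acetone/TWEEN 20 emulsions at 1,000 mg/l. After nine days in a 21° C. greenhouse, disease was scored as percent reduction versus unsprayed controls.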

Erysiphe polygoni = experiment: Powdery mildew on pinto bean, foliar application (ERY POL); type: in vivo; conditions: similar procedure as barley (1,000 mg/l); for pest or weed control at 1000 µg/mL: Erysiphe polygoni, read-out: Percent Reduction of Disease, ERY POL
Procedure, shortened: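 Pinto bean plants sprayed with compound emulsion (acetone or inert solvent, TWEEN 20, water) at 1,000 mg/l, or left unsprayed, dried, then inoculated with Erysiphe polygoni spores in a 21° C greenhouse. Disease scored; percent control computed against untreated controls.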

Pyricularia oryzae = experiment: whole plant or invertebrate; type: in vivo; conditions: for Percent Reduction of Disease, PYR ORY: barley, foliar, 1,000 mg/l; for pest or weed control at 1000 µg/mL: Pyricularia oryzae, in Hordeum vulgare, foliar, 216 h, read-out: Percent Reduction of Disease, PYR ORY, barley, foliar, 1,000 mg/l
Pythium ultimum = experiment: Fungal growth inhibition, treated disc on agar (PYT ULT); type: cell-based; conditions: disc dipped in 500 mg/l, 29° C.; for inhibition at 500 µg/mL: Globisporangium ultimum, read-out: Percent Growth Inhibition, PYT ULT

Structure (SMILES) | Percent Growth Inhibition, SEP NOD (Septoria nodorum) [%] | Percent Growth Inhibition, COL GOS (Colletotrichum gossypii) [%] | Percent Reduction of Disease, URO PHA (Uromyces phaseoli) [%] | Percent Reduction of Disease, ERY POL (Erysiphe polygoni) [%] | Percent Reduction of Disease, PYR ORY (Pyricularia oryzae) [%] | Percent Growth Inhibition, PYT ULT (Pythium ultimum) [%] | inhibition at 500 µg/mL (Septoria nodorum) [%] | inhibition at 500 µg/mL (Colletotrichum gossypii) [%] | pest or weed control at 1000 µg/mL (Uromyces phaseoli) [%] | pest or weed control at 1000 µg/mL (Erysiphe polygoni) [%] | pest or weed control at 1000 µg/mL (Pyricularia oryzae) [%] | inhibition at 500 µg/mL (Pythium ultimum) [%]
CCCCC(C#N)(CCc1ccc(OCC)cc1)c1cccnc1.Cl (stereo not drawn) [Compound 42, α-butyl-4-ethoxy-α-(3-pyridinyl)-benzenebutanenitrile hydrochloride] | 100 | 100 | 33 | 100 | 67 | 3 |  |  |  |  |  | 
CCOc1ccc(CCC(C#N)(CC(C)C)c2cccnc2)cc1 (stereo not drawn) [Compound 43] |  |  |  |  |  |  | 100 | 94 | 83 | 92 | 100 | 36
CCCCCCC(C#N)(CCc1ccc(OCC)cc1)c1cccnc1 (stereo not drawn) [Compound 44] |  |  |  |  |  |  | 100 | 100 | 92 | 90 | 17 | 89
CCCCCCC(C#N)(CCc1ccc(F)cc1)c1cccnc1 (stereo not drawn) [Compound 45] |  |  |  |  |  |  | 100 | 100 | 92 | 90 | 17 | 89
CCCC(C#N)(CCc1ccc(OCC)cc1)c1cccnc1 (stereo not drawn) [Compound 46] |  |  |  |  |  |  | 100 | 100 | 33 | 90 | 0 | 59
CC(C)=CCC(C#N)(CCc1ccc(F)cc1)c1cccnc1 (stereo not drawn) [Compound 47] |  |  |  |  |  |  | 100 | 100 | 33 | 90 | 0 | 100
COc1ccc(CCC(C#N)(CC=C(C)C)c2cccnc2)cc1 (stereo not drawn) [Compound 48] |  |  |  |  |  |  | 100 | 100 | 83 | 90 | 33 | 53
CC(C)CCC(C#N)(CCc1ccc(F)cc1)c1cccnc1 (stereo not drawn) [Compound 49] | 100 | 100 | 83 |  | 17 | 76 |  |  |  | 90 |  | 
COCC(C#N)(CCc1ccc(OC)cc1)c1cccnc1 (stereo not drawn) [Compound 50] |  |  |  |  |  |  | 100 | 100 | 90 | 100 | 0 | 10
COCC(C#N)(CCc1ccc(F)cc1)c1cccnc1 (stereo not drawn) [Compound 51] |  |  |  |  |  |  | 100 | 100 | 20 | 85 | 20 | 0
N#CC(CCc1ccc(F)cc1)(CC(F)(F)F)c1cccnc1 (stereo not drawn) [Compound 52] |  |  |  |  |  |  | 100 | 100 | 70 | 100 | 90 | 0
N#CC(CCF)(CCc1ccc(F)cc1)c1cccnc1 (stereo not drawn) [Compound 53] |  |  |  |  |  |  | 100 | 100 | 0 | 90 | 70 | 5
CCCCOc1ccc(CCC(C#N)(CCCC)c2cccnc2)cc1 (stereo not drawn) [Compound 54] |  |  |  |  |  |  | 100 | 100 | 35 | 90 | 90 | 5
CC(C)CCC(C#N)(CCc1ccc(F)cc1)c1cccnc1 (stereo not drawn) [Compound 55] | 10 | 30 | 0 | 85 | 70 | 20 |  |  |  |  |  | 
C=CCC(C#N)(CCc1ccc(OCCCC)cc1)c1cccnc1 (stereo not drawn) [Compound 56] |  |  |  |  |  |  | 40 | 35 | 0 | 90 | 90 | 5
CCCCOc1ccc(CCC(C#N)(CCC)c2cccnc2)cc1 (stereo not drawn) [Compound 57] |  |  |  |  |  |  | 40 | 15 | 0 | 90 | 100 | 5
CCCCOc1ccc(CCC(C#N)(CC(C)C)c2cccnc2)cc1 (stereo not drawn) [Compound 58] |  |  |  |  |  |  | 70 | 15 | 0 | 85 | 85 | 0
CC=CCC(C#N)(CCc1ccc(F)cc1)c1cccnc1 (stereo not drawn) [Compound 59] |  |  |  |  |  |  | 100 | 100 | 35 | 90 | 85 | 5
CCCCCC(C#N)(CCc1ccc(F)cc1)c1cccnc1 (stereo not drawn) [Compound 60] |  |  |  |  |  |  | 100 | 30 | 50 | 90 | 70 | 50
C#CCC(CCc1ccccc1)(C(N)=S)c1cccnc1 (stereo not drawn) [Compound 61, α-(2-phenylethyl)-α-(2-propynyl)-3-pyridinethanethioamide] |  |  |  |  |  |  | 20 | 100 | 0 | 100 | 50 | 100
CCCCCC(CCc1ccc(F)cc1)(C(N)=O)c1cccnc1 (stereo not drawn) [Compound 62] |  |  |  |  |  |  | 0 | 25 | 35 | 100 | 0 | 5
CCCCC(C#N)(CCCc1ccccc1OC)c1cccnc1 (stereo not drawn) [Compound 63] |  |  |  |  |  |  | 100 | 25 | 0 | 100 | 0 | 10
N#CC(CCCF)(CCc1ccc(F)cc1)c1cccnc1 (stereo not drawn) [Compound 64] |  |  |  |  |  |  | 100 | 55 | 70 | 100 | 20 | 0
N#CC(CCCF)(CCc1ccccc1F)c1cccnc1 (stereo not drawn) [Compound 66] |  |  |  |  |  |  | 100 | 100 | 70 | 100 | 0 | 0
C=CCC(C#N)(CCc1ccccc1F)c1cccnc1 (stereo not drawn) [Compound 67] |  |  |  |  |  |  | 100 | 100 | 50 | 100 | 0 | 20
CCCCC(C#N)(CCc1ccc(OCCF)cc1)c1cccnc1 (stereo not drawn) [Compound 68] |  |  |  |  |  |  | 100 | 100 | 50 | 100 | 70 | 40
CCCCC(C#N)(CCc1ccc(OCCC)cc1)c1cccnc1 (stereo not drawn) [Compound 69] | 100 | 100 | 0 | 100 | 0 | 35 |  |  |  |  |  | 
C=CCC(C#N)(CCCc1ccccc1OC)c1cccnc1 (stereo not drawn) [Compound 70] |  |  |  |  |  |  | 100 | 100 | 17 | 92 | 0 | 49
CCCC(C#N)(CCCc1ccccc1OC)c1cccnc1 (stereo not drawn) [Compound 71] |  |  |  |  |  |  | 100 | 100 | 92 | 100 | 0 | 60
CCCC(C#N)(CCc1ccccc1C(F)(F)F)c1cccnc1 (stereo not drawn) [Compound 72] |  |  |  |  |  |  | 100 | 100 | 0 | 92 | 0 | 71
